Measurements: US7514432B2, “Compounds and methods of treating cell proliferative diseases, retinopathies and arthritis” (Exonhit Therapeutics SA, priority 2003, dated 2009)

Test system: intersegmental vessels of zebrafish embryos
Assay: In vivo zebrafish angiogenesis assay
Conditions: embryos 20 hpf, incubated 28 hours; for max inhibition of intersegmental vessels formation: 1% DMSO
Description: FIG. 6: In vivo zebrafish angiogenesis assay. 20 Hours post fertilization (hpf) embryos Were incubated with compounds and 1% DMSO for 28 hours. Vessels were stained with NBT/BCIP and morphometric analyses were done using the Adobe Photoshop software. For each condition, 10 embryos were analyzed and results were expressed as means±SEM. (A) dose response curves. (B) table presenting the 50% and max inhibition of intersegmental vessels formation together with the percentage of dead embryos (see material and methods).
In vivo zebrafish angiogenesis model: This assay is a viable and validated whole animal model for screening small molecules that affect blood vessel formation (Serbedzija et al, Angiogenesis, 1999). The study was subcontracted to Phylonix Pharmaceutical, Cambridge, Mass., USA. • Drug treatment: Intersegmental vessels (ISVs) in zebrafish are well accepted as angiogenic vessels, and they are easily observed using microscopy. By 20 hpf stage, the major vasculogenic vessels (dorsal aorta and caudal vein) have developed. By 48 hours post fertilization (hpf), ISVs have formed by sprouting from the dorsal aorta and caudal vein. Therefore, 20 hpf was used as the starting point and 48 hpf as the end point for drug treatment. Zebrafish embryos staged at 20 hpf were incubated with compound solution at 28° C. for 28 hours in 6-well plates, 20 embryos per well. Embryos treated with 1% DMSO and 5 μM Flavopiridol were used as negative and positive controls, respectively. • Microscopy: All light microscopy studies were performed using a ZEISS Stemi 2000-C stereomicroscope (Zeiss), equipped with a digital spot camera (Diagnostic Instruments Inc.). Images were further processed and analyzed using Adobe Photoshop 7.0 (Adobe). • Whole mount EAP staining: Embryos were fixed in 4% PFA for 2 hours at room temperature, and dehydrated in 100% ethanol following standard procedures. Embryos were then rehydrated, blocked, and stained with NBT/BCIP. After washing, embryos were examined by microscopy. • Quantitation of anti-angiogenic effects: To quantitate anti-angiogenic effects, 5 well developed trunk ISVs located around the anal pore were selected and morphometric analysis [area (pixel)× signal intensity] was performed using Adobe Photoshop. For each condition, 10 embryos were assessed and the mean value of 10 images was calculated using EXCEL software program (Microsoft Corporation). To calculate the inhibitory effect, the mean value of signal (S) in 5 ISVs in drug treated embryos was divided by mean value of S in DMSO control embryos, and calculated as % inhibition using the following formula: […]

CN1CCN(Cc2cc(=O)c(OCCCCCSc3ccnc4cc(C(F)(F)F)ccc34)co2)CC1.Cl.Cl.Cl [EHT 9241, 5-(5-(7-(Trifluoromethyl)quinolin-4-ylthio)pentyloxy)-2-((4-methylpiperazin-1-yl)methyl)-4H-pyran-4-one trihydrochloride]
max inhibition of intersegmental vessels formation: 40%

Cl.Cl.O=c1cc(CN2CCOCC2)occ1OCCCCCSc1ccnc2cc(C(F)(F)F)ccc12 [EHT 1864, 5-(5-(7-(Trifluoromethyl)quinolin-4-ylthio)pentyloxy)-2-(morpholinomethyl)-4H-pyran-4-one dihydrochloride]
anti-angiogenic activity in the zebrafish embryo: dose-dependent anti-angiogenic activity | toxicity in zebrafish embryos: much less toxic than reference compounds Flavopiridol and SU-5416 | max inhibition of intersegmental vessels formation: 77%
